Earlier results in patent US8846104B2, “Pharmaceutical compositions for the deterrence and/or prevention of abuse” (priority 2006, dated 2014).

System: mu over delta sites

In the case of `O=C1CC[C@@]2(O)[C@H]3Cc4ccc(O)c5c4[C@@]2(CCN3CC2CC2)[C@H]1O5` [naltrexone], the “blocking action, site preference” value is given as “strong preferential blocking action against mu over delta sites”.
